Source: paper PMC7758046, “Novel piperazine–chalcone hybrids and related pyrazoline analogues targeting VEGFR-2 kinase; design, synthesis, molecular docking studies, and anticancer evaluation” (Journal of Enzyme Inhibition and Medicinal Chemistry, 2020)

What was measured:
Test in all cases: NCI-60 single-dose anticancer screen
Format in all cases: cell-based, human
[1] = test system: 786-0 (Renal cancer); details: 10 µM single dose
Description: (§1) Six compounds were selected by the NCI, according to NCI’s DTP selection guidelines, for evaluation of their anticancer activity at a single-dose of 10 µM against 60 human tumours cell lines.
(§2) In vitro cytotoxicity was performed in NCI according to reported method.

[2] = test system: A498 (Renal cancer); details: 10 µM single dose
Description: as §1, §2

[3] = test system: BT-549 (Breast cancer); details: 10 µM single dose
Description: as §1, §2

[4] = test system: CAKI-1 (Renal cancer); details: 10 µM single dose
Description: as §1, §2

[5] = test system: CCRF-CEM (Leukaemia); details: 10 µM single dose; for inhibition at 10 µM: Homo sapiens, read-out: cell growth inhibition
Description: as §1, §2

[6] = test system: COLO 205 (Colon cancer); details: 10 µM single dose
Description: as §1, §2

[7] = test system: DU-145 (Prostate cancer); details: 10 µM single dose
Description: as §1, §2

[8] = test system: EKVX (Non-small cell lung cancer); details: 10 µM single dose
Description: as §1, §2

[9] = test system: HCC-2998 (Colon cancer); details: 10 µM single dose
Description: as §1, §2

[10] = test system: HCT-116 (Colon cancer); details: for cell growth promotion: 10 µM single dose; for inhibition at 10 µM: Homo sapiens, read-out: cell growth inhibition
Description: as §1, §2

[11] = test system: HCT-15 (Colon cancer); details: 10 µM single dose
Description: as §1, §2

[12] = test system: HOP-62 (Non-small cell lung cancer); details: 10 µM single dose
Description: as §1, §2

[13] = test system: HOP-92 (Non-small cell lung cancer); details: 10 µM single dose; for inhibition at 10 µM: Homo sapiens, read-out: cell growth inhibition
Description: as §1, §2

[14] = test system: HT29 (Colon cancer); details: for cell growth promotion: 10 µM single dose; for inhibition at 10 µM: Homo sapiens, HT-29, 10 µM single dose, read-out: cell growth inhibition
Description: as §1, §2

[15] = test system: IGROV1 (Ovarian cancer); details: 10 µM single dose
Description: as §1, §2

[16] = test system: LOX IMVI (Melanoma); details: 10 µM single dose
Description: as §1, §2

[17] = test system: MALME-3M (Melanoma); details: 10 µM single dose
Description: as §1, §2

[18] = test system: MDA-MB-435 (Melanoma); details: 10 µM single dose
Description: as §1, §2

[19] = test system: MDA-MB-468 (Breast cancer); details: 10 µM single dose
Description: as §1, §2

[20] = test system: MOLT-4 (Leukaemia); details: 10 µM single dose
Description: as §1, §2

[21] = test system: NCI-H226 (Non-small cell lung cancer); details: 10 µM single dose
Description: as §1, §2

[22] = test system: NCI-H460 (Non-small cell lung cancer); details: 10 µM single dose
Description: as §1, §2

[23] = test system: NCI-H522 (Non-small cell lung cancer); details: 10 µM single dose
Description: as §1, §2

[24] = test system: NCI/ADR-RES (Ovarian cancer); details: 10 µM single dose
Description: as §1, §2

[25] = test system: OVCAR-3 (Ovarian cancer); details: 10 µM single dose
Description: as §1, §2

[26] = test system: OVCAR-4 (Ovarian cancer); details: 10 µM single dose
Description: as §1, §2

[27] = test system: OVCAR-5 (Ovarian cancer); details: 10 µM single dose
Description: as §1, §2

[28] = test system: OVCAR-8 (Ovarian cancer); details: 10 µM single dose
Description: as §1, §2

[29] = test system: PC-3 (Prostate cancer); details: 10 µM single dose
Description: as §1, §2

[30] = test system: RPMI-8226 (Leukaemia); details: 10 µM single dose
Description: as §1, §2

[31] = test system: RXF 393 (Renal cancer); details: 10 µM single dose
Description: as §1, §2

[32] = test system: SF-268 (CNS cancer); details: 10 µM single dose
Description: as §1, §2

[33] = test system: SF-295 (CNS cancer); details: 10 µM single dose
Description: as §1, §2

[34] = test system: SK-MEL-2 (Melanoma); details: 10 µM single dose
Description: as §1, §2

[35] = test system: SK-MEL-28 (Melanoma); details: 10 µM single dose
Description: as §1, §2

[36] = test system: SK-OV-3 (Ovarian cancer); details: 10 µM single dose
Description: as §1, §2

[37] = test system: SN12C (Renal cancer); details: 10 µM single dose
Description: as §1, §2

[38] = test system: SNB-19 (CNS cancer); details: 10 µM single dose
Description: as §1, §2

[39] = test system: SNB-75 (CNS cancer); details: 10 µM single dose
Description: as §1, §2

[40] = test system: SR (Leukaemia); details: 10 µM single dose; for inhibition at 10 µM: Homo sapiens, read-out: cell growth inhibition
Description: as §1, §2

[41] = test system: SW-620 (Colon cancer); details: 10 µM single dose
Description: as §1, §2

[42] = test system: T-47D (Breast cancer); details: 10 µM single dose
Description: as §1, §2

[43] = test system: TK-10 (Renal cancer); details: 10 µM single dose
Description: as §1, §2

[44] = test system: U251 (CNS cancer); details: 10 µM single dose
Description: as §1, §2

[45] = test system: UACC-257 (Melanoma); details: 10 µM single dose
Description: as §1, §2

[46] = test system: UACC-62 (Melanoma); details: 10 µM single dose
Description: as §1, §2

[47] = test system: UO-31 (Renal cancer); details: 10 µM single dose
Description: as §1, §2

Compound `O=C(C=Cc1cccc(F)c1)c1ccc(N2CCNCC2)cc1` [Vd, 3-(3-Fluorophenyl)-1-(4-(piperazin-1-yl)phenyl)prop-2-en-1-one] has a cell growth promotion [1] of 85.24%, a cell growth promotion [2] of 95.14% and a cell growth promotion [3] of 73.16%. The cell growth promotion [4] was 68.63%, the cell growth promotion [5] was 58.18% and the inhibition at 10 µM [5] was 41.8%. It also gave a cell growth promotion [6] of 96.91%, a cell growth promotion [7] of 77.70% and a cell growth promotion [8] of 95.54%. The cell growth promotion [9] was 94.99%, the cell growth promotion [10] was 42.08% and the inhibition at 10 µM [10] was 57.9%. The cell growth promotion [11] was 73.49%, the cell growth promotion [12] was 80.17% and the cell growth promotion [13] was 58.41%. For the same compound, the inhibition at 10 µM [13] was 41.6%, the cell growth promotion [14] was 30.44% and the inhibition at 10 µM [14] was 69.6%. It also gave a cell growth promotion [15] of 67.97%, a cell growth promotion [16] of 71.13% and a cell growth promotion [17] of 94.15%. It also gave a cell growth promotion [18] of 94.27%, a cell growth promotion [19] of 94.85% and a cell growth promotion [20] of 68.62%. The cell growth promotion [21] was 87.11%, the cell growth promotion [22] was 74.45% and the cell growth promotion [23] was 71.57%. For the same compound, the cell growth promotion [24] was 109.37%, the cell growth promotion [25] was 93.74% and the cell growth promotion [26] was 80.53%. For the same compound, the cell growth promotion [27] was 94.72%, the cell growth promotion [28] was 67.16% and the cell growth promotion [29] was 66.01%. It also gave a cell growth promotion [30] of 76.47%, a cell growth promotion [31] of 75.94% and a cell growth promotion [32] of 85.41%. The cell growth promotion [33] was 101.78%, the cell growth promotion [34] was 96.08% and the cell growth promotion [35] was 109.03%. The cell growth promotion [36] was 79.98%, the cell growth promotion [37] was 68.16% and the cell growth promotion [38] was 71.95%. It also gave a cell growth promotion [39] of 85.44%, a cell growth promotion [40] of 55.72% and an inhibition at 10 µM [40] of 44.3%. For the same compound, the cell growth promotion [41] was 61.08%, the cell growth promotion [42] was 87.54% and the cell growth promotion [43] was 114.19%. For the same compound, the cell growth promotion [44] was 72.39%, the cell growth promotion [45] was 75.92% and the cell growth promotion [46] was 79.23%. It also gave a cell growth promotion [47] of 76.58%.

For `N#Cc1ccccc1C1CC(c2ccc(N3CCNCC3)cc2)=NN1` (centres unmarked) [VIa, 2-(3-(4-(Piperazin-1-yl)phenyl)-4,5-dihydro-1H-pyrazol-5-yl)benzonitrile], the cell growth promotion [1] was 106.73%, the cell growth promotion [2] was 93.08% and the cell growth promotion [3] was 96.87%. It also gave a cell growth promotion [4] of 83.12%, a cell growth promotion [5] of 71.21% and an inhibition at 10 µM [5] of 28.8%. The cell growth promotion [6] was 113.04%, the cell growth promotion [7] was 104.00% and the cell growth promotion [8] was 101.50%. For the same compound, the cell growth promotion [9] was 96.75%, the cell growth promotion [10] was 85.83% and the inhibition at 10 µM [10] was 14.2%. It also gave a cell growth promotion [11] of 112.02%, a cell growth promotion [12] of 86.44% and a cell growth promotion [13] of 83.18%. It also gave an inhibition at 10 µM [13] of 16.8%, a cell growth promotion [14] of 87.83% and an inhibition at 10 µM [14] of 12.2%. For the same compound, the cell growth promotion [15] was 93.22%, the cell growth promotion [16] was 99.03% and the cell growth promotion [17] was 106.87%. The cell growth promotion [18] was 102.57%, the cell growth promotion [19] was 101.01% and the cell growth promotion [20] was 96.02%. For the same compound, the cell growth promotion [21] was 93.10%, the cell growth promotion [22] was 101.50% and the cell growth promotion [23] was 69.51%. It also gave an inhibition at 10 µM ([23]; Homo sapiens, read-out: cell growth inhibition) of 30.5%, a cell growth promotion [24] of 102.72% and a cell growth promotion [25] of 101.64%. It also gave a cell growth promotion [26] of 101.39%, a cell growth promotion [27] of 113.63% and a cell growth promotion [28] of 90.36%. The cell growth promotion [29] was 83.35%, the cell growth promotion [30] was 88.98% and the cell growth promotion [31] was 108.30%. It also gave a cell growth promotion [32] of 100.24%, a cell growth promotion [33] of 103.66% and a cell growth promotion [34] of 94.51%. The cell growth promotion [35] was 114.17%, the cell growth promotion [36] was 96.47% and the cell growth promotion [37] was 98.09%. It also gave a cell growth promotion [38] of 95.34%, a cell growth promotion [39] of 90.58% and a cell growth promotion [40] of 94.43%. It also gave an inhibition at 10 µM [40] of 5.57%, a cell growth promotion [41] of 94.11% and a cell growth promotion [42] of 89.99%. For the same compound, the cell growth promotion [43] was 130.17%, the cell growth promotion [44] was 94.54% and the cell growth promotion [45] was 85.21%. For the same compound, the cell growth promotion [46] was 88.47% and the cell growth promotion [47] was 86.28%.

In the case of `COc1cc(C2CC(c3ccc(N4CCNCC4)cc3)=NN2)ccc1F` (centres unmarked) [VIb, 1-(4-(5-(4-Fluoro-3-methoxyphenyl)-4,5-dihydro-1H-pyrazol-3-yl)phenyl) piperazine], the cell growth promotion [1] is reported as 94.50%, the cell growth promotion [2] is reported as 90.59% and the cell growth promotion [3] is reported as 70.80%. It also gave a cell growth promotion [4] of 86.62%, a cell growth promotion [5] of 69.44% and a cell growth promotion [6] of 93.87%. For the same compound, the cell growth promotion [7] was 103.62%, the cell growth promotion [8] was 95.41% and the cell growth promotion [9] was 104.57%. It also gave a cell growth promotion [10] of 61.10%, an inhibition at 10 µM [10] of 38.9% and a cell growth promotion [11] of 85.57%. It also gave a cell growth promotion [12] of 86.01%, a cell growth promotion [13] of 57.13% and an inhibition at 10 µM [13] of 42.9%. It also gave a cell growth promotion [14] of 20.27%, an inhibition at 10 µM [14] of 79.7% and a cell growth promotion [15] of 82.04%. It also gave a cell growth promotion [16] of 79.56%, a cell growth promotion [17] of 102.13% and a cell growth promotion [18] of 101.87%. For the same compound, the cell growth promotion [19] was 96.57%, the cell growth promotion [20] was 72.10% and the cell growth promotion [21] was 89.08%. It also gave a cell growth promotion [22] of 95.16%, a cell growth promotion [23] of 66.27% and a cell growth promotion [24] of 104.69%. For the same compound, the cell growth promotion [25] was 91.15%, the cell growth promotion [26] was 91.49% and the cell growth promotion [27] was 101.51%. It also gave a cell growth promotion [28] of 84.09%, a cell growth promotion [29] of 64.23% and a cell growth promotion [30] of 72.01%. For the same compound, the cell growth promotion [31] was 95.32%, the cell growth promotion [32] was 93.72% and the cell growth promotion [33] was 97.70%. For the same compound, the cell growth promotion [34] was 87.70%, the cell growth promotion [35] was 109.51% and the cell growth promotion [36] was 83.58%. For the same compound, the cell growth promotion [37] was 83.08%, the cell growth promotion [38] was 95.65% and the cell growth promotion [39] was 88.85%. The cell growth promotion [40] was 67.42%, the cell growth promotion [41] was 91.67% and the cell growth promotion [42] was 73.62%. The cell growth promotion [43] was 113.60%, the cell growth promotion [44] was 78.59% and the cell growth promotion [45] was 80.93%. The cell growth promotion [46] was 86.00% and the cell growth promotion [47] was 76.56%.
